From US4036979A, “Compositions containing 4,5,6,7-tetrahydrobenz[b]thien-4-yl-ureas or derivatives and methods of enhancing growth rate” (American Cyanamid Company, priority 1976, dated 1977)

Assay: Mouse Growth Regulant Tests (12-day weight gain over controls, compound in diet)
Assay type: in vivo, CFI female mice
Conditions: Mus musculus, feed or water, 288 h, Table VI; 50 ppm in diet
Experimental: CFI female mice from Carworth Farms are received when they are six weeks old. They are housed ten to a cage in air-conditioned rooms (72° F. to 76° F.) with automatically controlled lights, 14 hours on and 10 hours off. The basal diet used in these studies is Purina Laboratory Chow (see description below), which is supplied ad libitum. Water is also allowed ad libitum.
Thirteen days after arrival, the mice are weighed in groups of ten and assigned at random to the different treatments. Twelve days later the mice are weighed again and the experiment terminated. At least three cages (30 mice) of untreated controls are included in each test. Test data are provided in Tables VI, VII, VIII, and IX below wherein data are reported as percent weight gain over controls. Unless otherwise indicated in these tables, all compounds tested were dl-racemic mixtures. The following is a description of the diet to which the growth promoting compounds were added.

SMILES | change in vivo at 50 ppm
CCNC(=O)NC1CCCc2sccc21 (stereo not drawn) [Table VI: O,H,H,H,H,C2H5, 1-ethyl-3-(4,5,6,7-tetrahydrobenzo[b]thien-4-yl)urea] | 40.3%
CNC(=O)NC1CCCc2sccc21 (stereo not drawn) [Table VI: O,H,H,H,H,CH3, 1-methyl-3-(4,5,6,7-tetrahydrobenzo[b]thien-4-yl)urea] | 61.8%

Same assay, conditions: Mus musculus, feed or water, 288 h, Table VI; 200 ppm in diet

SMILES | change in vivo at 200 ppm
CCNC(=O)NC1CCCc2sccc21 (stereo not drawn) [Table VI: O,H,H,H,H,C2H5, 1-ethyl-3-(4,5,6,7-tetrahydrobenzo[b]thien-4-yl)urea] | 87.6%
CCCCNC(=O)NC1CCCc2sccc21 (stereo not drawn) [Table VI: O,H,H,H,H,n-butyl] | 25%

Same assay, conditions: Mus musculus, feed or water, 288 h, Table VI; 400 ppm in diet

SMILES | change in vivo at 400 ppm
CC(C)N(O)C(=O)NC1CCCc2sccc21 (stereo not drawn) [Table VI: O,H,H,H,CH(CH3)2,OH] | 32%
CCNC(=O)NC1CCCc2sccc21 (stereo not drawn) [Table VI: O,H,H,H,H,C2H5, 1-ethyl-3-(4,5,6,7-tetrahydrobenzo[b]thien-4-yl)urea] | 87.6%
O=C(NCc1ccccc1)NC1CCCc2sccc21 (stereo not drawn) [Table VI: O,H,H,H,H,CH2C6H5, 1-benzyl-3-(4,5,6,7-tetrahydrobenzo[b]thien-4-yl)urea] | 32.4%
C#CCNC(=O)NC1CCCc2sccc21 (stereo not drawn) [Table VI: O,H,H,H,H,CH2CCH] | 82%
O=C(NCC(F)(F)F)NC1CCCc2sccc21 (stereo not drawn) [Table VI: O,H,H,H,H,CH2CF3] | 19%
O=C(NCCc1ccccc1)NC1CCCc2sccc21 (stereo not drawn) [Table VI: O,H,H,H,H,CH2CH2C6H5, 1-phenethyl-3-(4,5,6,7-tetrahydrobenzo[b]thien-4-yl)urea] | 72.3%
O=C(NCCO)NC1CCCc2sccc21 (stereo not drawn) [Table VI: O,H,H,H,H,CH2CH2OH] | 3%
COC(CNC(=O)NC1CCCc2sccc21)OC (stereo not drawn) [Table VI: O,H,H,H,H,CH2CH(OCH3)2] | 22%
C=CCNC(=O)NC1CCCc2sccc21 (stereo not drawn) [Table VI: O,H,H,H,H,CH2CHCH2] | 48.4%
N#CCNC(=O)NC1CCCc2sccc21 (stereo not drawn) [Table VI: O,H,H,H,H,CH2CN] | 12%
COCNC(=O)NC1CCCc2sccc21 (stereo not drawn) [Table VI: O,H,H,H,H,CH2OCH3, 1-(methoxymethyl)-3-(4,5,6,7-tetrahydrobenzo[b]thien-4-yl)urea] | 102%
CNC(=O)NC1CCCc2sccc21 (stereo not drawn) [Table VI: O,H,H,H,H,CH3, 1-methyl-3-(4,5,6,7-tetrahydrobenzo[b]thien-4-yl)urea] | 134%
CC(C)NC(=O)NC1CCCc2sccc21 (stereo not drawn) [Table VI: O,H,H,H,H,CH(CH3)2, 1-isopropyl-3-(4,5,6,7-tetrahydrobenzo[b]thien-4-yl)urea] | 88%
N#CNC(=O)NC1CCCc2sccc21 (stereo not drawn) [Table VI: O,H,H,H,H,CN] | 1%
CN(C)NC(=O)NC1CCCc2sccc21 (stereo not drawn) [Table VI: O,H,H,H,H,N(CH3)2] | 3%
COC(=O)NNC(=O)NC1CCCc2sccc21 (stereo not drawn) [Table VI: O,H,H,H,H,NHCO2CH3] | 18%
CCONC(=O)NC1CCCc2sccc21 (stereo not drawn) [Table VI: O,H,H,H,H,OC2H5, 1-ethoxy-3-(4,5,6,7-tetrahydrobenzo[b]-thien-4-yl)urea] | 61%

SMILES | change in vivo at 400 ppm
O=C(NOCc1ccccc1)NC1CCCc2sccc21 (stereo not drawn) [Table VI: O,H,H,H,H,OCH2C6H5, 1-benzyloxy-3-(4,5,6,7-tetrahydrobenzo[b]thien-4-yl)urea] | 7.8%
C=CCONC(=O)NC1CCCc2sccc21 (stereo not drawn) [Table VI: O,H,H,H,H,OCH2CHCH2] | 5%
O=C(O)CONC(=O)NC1CCCc2sccc21 (stereo not drawn) [Table VI: O,H,H,H,H,OCH2CO2H] | 63.3%
CONC(=O)NC1CCCc2sccc21 (stereo not drawn) [Table VI: O,H,H,H,H,OCH3, 1-methoxy-3-(4,5,6,7-tetrahydrobenzo[b]thien-4-yl)urea] | 68.6%
O=C(NO)NC1CCCc2sccc21 (stereo not drawn) [Table VI: O,H,H,H,H,OH, 1-hydroxy-3-(4,5,6,7-tetrahydrobenzo[b]thien-4-yl)urea] | 103%
CCCCCCONC(=O)NC1CCCc2sccc21 (stereo not drawn) [Table VI: O,H,H,H,H,On-C6H13] | 29%
CCCCCCNC(=O)NC1CCCc2sccc21 (stereo not drawn) [Table VI: O,H,H,H,H,n-hexyl, 1-(n-hexyl)-3-(4,5,6,7-tetrahydrobenzo[b]thien-4-yl)urea] | 14.5%
CCCCN(CCCC)C(=O)NC1CCCc2sccc21 (stereo not drawn) [Table VI: O,H,H,H,n-butyl,n-butyl, 1,1-dibutyl-3-(4,5,6,7-tetrahydrobenzo[b]thien-4-yl)urea] | 6%
NC(=O)NC1CCCc2sc([N+](=O)[O-])cc21 (stereo not drawn) [Table VI: O,NO2,H,H,H,H, 2-nitro-4,5,6,7-tetrahydrobenzo[b]thien-4-ylurea] | 17%
CNC(=S)NC1CCCc2sc(C)cc21 (stereo not drawn) [Table VI: S,CH3,H,H,CH3,H] | 88.5%
CON(C)C(=S)NC1CCCc2sccc21 (stereo not drawn) [Table VI: S,H,H,H,CH3,OCH3] | 66%
CCNC(=S)NC1CCCc2sccc21 (stereo not drawn) [Table VI: S,H,H,H,H,C2H5, 1-ethyl-3-(4,5,6,7-tetrahydrobenzo[b]thien-4-yl)thiourea] | 54.6%
C=CCNC(=S)NC1CCCc2sccc21 (stereo not drawn) [Table VI: S,H,H,H,H,CH2CHCH] | 60%
CCOC(=O)NC(=S)NC1CCCc2sccc21 (stereo not drawn) [Table VI: S,H,H,H,H,CO2C2H5] | 22.3%
NC(=S)NC1CCCc2sccc21 (stereo not drawn) [Table VI: S,H,H,H,H,H, 4,5,6,7-tetrahydrobenzo[b]thien-4-yl thiourea] | 11%
CCCCCCCCNC(=S)NC1CCCc2sccc21 (stereo not drawn) [Table VI: S,H,H,H,H,n-C8H17] | 16%
CCCCNC(=S)NC1CCCc2sccc21 (stereo not drawn) [Table VI: S,H,H,H,H,n-butyl] | 75%

Same assay, conditions: Mus musculus, feed or water, 288 h, Table VII; 200 ppm in diet

SMILES | change in vivo at 200 ppm
CN(C)C(=O)NC1CCC(=O)c2sccc21 (stereo not drawn) [Table VII: O,CH3,CH3, 1,1-dimethyl-3-(4,5,6,7-tetrahydro-7-oxobenzo[b]thien-4-yl)urea] | 58.6%
CON(C)C(=O)NC1CCC(=O)c2sccc21 (stereo not drawn) [Table VII: O,CH3,OCH3, 1-methoxy-1-methyl-3-(4,5,6,7-tetrahydro-7-oxobenzo[b]thien-4-yl)urea] | 62.6%
CN(O)C(=O)NC1CCC(=O)c2sccc21 (stereo not drawn) [Table VII: O,CH3,OH] | 31.3%
C#CCNC(=O)NC1CCC(=O)c2sccc21 (stereo not drawn) [Table VII: O,H,CH2CCH, 1-(2-propynyl)-3-(4,5,6,7-tetrahydro-7-oxobenzo[b]thien-4-yl)urea] | 40.6%
CONC(=O)NC1CCC(=O)c2sccc21 (stereo not drawn) [Table VII: O,H,OCH3] | 71%
CC(C)NC(=O)NC1CCC(=O)c2sccc21 (stereo not drawn) [Table VII: O,H,iso-C3H7] | 84%

Same assay, conditions: Mus musculus, feed or water, 288 h, Table VII; 400 ppm in diet

SMILES | change in vivo at 400 ppm
CCNC(=O)NC1CCC(=O)c2sccc21 (stereo not drawn) [Table VII: O,H,C2H5, 1-ethyl-3-(4,5,6,7-tetrahydro-7-oxobenzo[b]thien-4-yl)urea] | 79.3%
C=CCNC(=O)NC1CCC(=O)c2sccc21 (stereo not drawn) [Table VII: O,H,CH2CHCH2] | 58.7%
COCNC(=O)NC1CCC(=O)c2sccc21 (stereo not drawn) [Table VII: O,H,CH2OCH3, 1-(methoxymethyl)-3-(4,5,6,7-tetrahydro-7-oxobenzo[b]thien-4-yl)urea] | 143%
CNC(=O)NC1CCC(=O)c2sccc21 (stereo not drawn) [Table VII: O,H,CH3, 1-methyl-3-(4,5,6,7-tetrahydro-7-oxobenzo[b]thien-4-yl)urea] | 64.8%
CCCCCCCCNC(=O)NC1CCC(=O)c2sccc21 (stereo not drawn) [Table VII: O,H,n-C8H17] | 83.4%
CCCCCCCCCCNC(=O)NC1CCC(=O)c2sccc21 (stereo not drawn) [Table VII: O,H,n-C10H21] | 15.4%
CCCCCCCCCCCCNC(=O)NC1CCC(=O)c2sccc21 (stereo not drawn) [Table VII: O,H,n-C12H25, 1-n-dodecyl-3-(4,5,6,7-tetrahydro-7-oxobenzo[b]thien-4-yl)urea] | 4.1%
CCCCCCCCCCCCCCNC(=O)NC1CCC(=O)c2sccc21 (stereo not drawn) [Table VII: O,H,n-C14H29] | 9.7%
CNC(=S)NC1CCC(=O)c2sccc21 (stereo not drawn) [Table VII: S,H,CH3] | 62.5%

Same assay, conditions: Mus musculus, feed or water, 288 h, Table VIII; 50 ppm in diet

SMILES | change in vivo at 50 ppm
C#CCNC(=O)NC1CCC(O)c2sccc21 (stereo not drawn) [Table VIII: O,H,CH2CCH, 1-(2-propynyl)-3-(7-hydroxy-4,5,6,7-tetrahydrobenzo[b]thien-4-yl)urea] | 49.2%

Same assay, conditions: Mus musculus, feed or water, 288 h, Table VIII; 200 ppm in diet

SMILES | change in vivo at 200 ppm
CON(C)C(=O)NC1CCC(O)c2sccc21 (stereo not drawn) [Table VIII: O,CH3,OCH3, 1-methyl-1-methoxy-3-(7-hydroxy-4,5,6,7-tetrahydrobenzo[b]-thien-4-yl)urea] | 60.5%
CCNC(=O)NC1CCC(O)c2sccc21 (stereo not drawn) [Table VIII: O,H,C2H5, 1-ethyl-3-(7-hydroxy-4,5,6,7-tetrahydrobenzo[b]thien-4-yl)urea] | 73.4%

Same assay, conditions: Mus musculus, feed or water, 288 h, Table VIII; 400 ppm in diet

SMILES | change in vivo at 400 ppm
CN(C)C(=O)NC1CCC(O)c2sccc21 (stereo not drawn) [Table VIII: O,CH3,CH3, 1,1-dimethyl-3-(7-hydroxy-4,5,6,7-tetrahydrobenzo[b]thien-4-yl)urea] | 81.5%
C=CCNC(=O)NC1CCC(O)c2sccc21 (stereo not drawn) [Table VIII: O,H,CH2CHCH2, 1-allyl-3-(7-hydroxy-4,5,6,7-tetrahydrobenzo[b]thien-4-yl)-urea] | 29.1%
COCNC(=O)NC1CCC(O)c2sccc21 (stereo not drawn) [Table VIII: O,H,CH2OCH3, 1-(methoxymethyl)-3-(4,5,6,7-tetrahydro-7-hydroxybenzo[b]thien-4-yl)urea] | 124%
CNC(=O)NC1CCC(O)c2sccc21 (stereo not drawn) [Table VIII: O,H,CH3, 1-methyl-3-(7-hyroxy-4,5,6,7-tetrahydrobenzo[b]thien-4-yl)urea] | 60.2%
